# Several values for one entry are separate records, joined by “and”; a condition that tells them apart may be missing. Equal entries are not always repeated. Where two headings read alike, the source gives them in different places. Marks after values point to notes of the source that are not given here.
# Experiments:
# Assay type in all cases: cell-based, Staphylococcus aureus
# HA-MRSA [1] = assay: MIC (CLSI broth dilution), agent alone
# In short: (§1)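 S. aureus isolates were tested by CLSI 2005 broth macrodilution in doubling dilutions of cation-adjusted Mueller-Hinton broth. Inoculum was about 5×10^5 CFU/ml, with 24 h incubation in ambient air. MIC was the lowest concentration inhibiting visible growth, with an MSSA and ATCC QC strains as controls.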
# MSSA = assay: MIC (CLSI broth dilution), agent alone; conditions: agent alone
# In short: as §1
# CA-MRSA [2] = assay: MIC (CLSI broth dilution), agent alone
# In short: as §1
# HA-MRSA [3] = assay: Checkerboard assay (FIC index)
# Protocol: (§2) Checkerboard assays were carried out as described by Bonapace et al.
# (§3) Diagnostic Microbiology and Infectious Diseases 2002; 44:363-366. In brief, checkerboard assays were performed in 96 well microtitre trays using an 8-by-8 well configuration. […] 96-well custom designed microtitre plates contained 100 ul/well of cation adjusted Mueller-Hinton broth (eg. for Enterobacteriaceae) with or without lysed horse blood (2-5% V/V) [eg. for S. pneumoniae] and were inoculated to achieve a final concentration of approximately 5×10^5 CFU/ml and incubated in ambient air for 24 hours prior to reading. Colony counts were performed periodically to confirm inocula. Quality control was performed every two weeks using a variety of ATCC QC organisms including; S. pneumoniae 49619, S. aureus 29213, E. faecalis 29212, E. coli 25922 and P. aeruginosa 27853. […] All peptides were assessed for synergy with β-lactams and vancomycin. For all antimicrobials as well as the peptides, CLSI criteria were used.
# (§4) The fractional inhibitory concentration index (FIC index) was used to interpret synergy, antagonism or additivity/indifference. FIC index=FIC of drug A+FIC of drug B where:
# (§5) The FIC of drug A and drug B was calculated as follows, FIC drug A=MIC of drug A in combination/MIC of drug A alone and FIC of drug B=MIC of drug B in combination/MIC of drug B alone. Synergy was defined as FIC index ≦0.5, additivity/indifference defined as a FIC between 0.5 and 4 and antagonism defined as an FIC index >4.
# (§6) The fractional inhibitory concentration index (FIC index) was used to interpret synergy, antagonism or additivity/indifference. FIC index=FIC of drug A+FIC of drug B where the FIC of drug A and drug B was calculated as follows, FIC drug A=MIC of drug A in combination/MIC of drug A alone and FIC of drug B=MIC of drug B in combination/MIC of drug B alone. Synergy was defined as FIC index ≦0.5, additivity/indifference defined as an FIC of between 0.5 and 4 and antagonism defined as an FIC index >4.
# (§7) The checkerboard assays were carried out as described by Eliopoulos and Moellering (Chapter 9) in Antibiotic in Laboratory Medicine, Lorian Ed. 1996 as well as Bonapace et al. Diagnostic Microbiology and Infectious Diseases 2002; 44:363-366 and Bonapace et al. Diagnostic Microbiology and Infectious Diseases 2000; 38:43-50. In brief, checkerboard assays were performed in 96 well microtitre trays using an 8-by-8 well configuration. […] 96-well custom designed microtitre plates contained 100 ul/well of cation adjusted Mueller-Hinton broth (eg. for Enterobacteriaceae) with or without lysed horse blood (2-5% V/V) [eg. for S. pneumoniae] and were inoculated to achieve a final concentration of approximately 5×10^5 CFU/ml and incubated in ambient air for 24 hours prior to reading. Colony counts were performed periodically to confirm inocula. Quality control was performed every two weeks using a variety of ATCC QC organisms including; S. pneumoniae 49619, S. aureus 29213, E. faecalis 29212, E. coli 25922 and P. aeruginosa 27853.
# (§8) The FIC of drug A and drug B is calculated as follows, FIC drug A=MIC of drug A in combination/MIC of drug A alone and FIC of drug B=MIC of drug B in combination/MIC of drug B alone. Synergy is defined as FIC index ≦0.5, additivity/indifference FIC >0.5-4 and antagonism FIC index >4.
# (§9) These agents were obtained as laboratory grade powders from their respective manufacturers. Stock solutions were prepared and dilutions made as described by the Clinical Laboratory Standards Institute (2005 CLSI).
# VRSA = assay: Checkerboard assay (FIC index)
# Protocol: as §2, §3, §4, §5, §6, §7, §8, §9
# CA-MRSA [4] = assay: Checkerboard assay (FIC index)
# Protocol: as §2, §3, §4, §5, §6, §7, §8, §9
# [5] = HA-MRSA 77090 (USA100/800), agent alone
# [6] = CA-MRSA 69615 (USA400), agent alone
# [7] = antibiotic combined with PEP35 (added together), HA-MRSA 77090 (USA100/800)
# [8] = antibiotic combined with PEP35 (added together), VRSA 105
# [9] = antibiotic combined with PEP35 (added together), CA-MRSA 70857 (USA400)
smiles,measurement,setting,value
CN[C@H](CC(C)C)C(=O)N[C@H]1C(=O)N[C@@H](CC(N)=O)C(=O)N[C@H]2C(=O)N[C@H]3C(=O)N[C@H](C(=O)N[C@H](C(=O)O)c4cc(O)cc(O)c4-c4cc3ccc4O)[C@H](O)c3ccc(c(Cl)c3)Oc3cc2cc(c3O[C@@H]2O[C@H](CO)[C@@H](O)[C@H](O)[C@H]2O[C@H]2C[C@](C)(N)[C@H](O)[C@H](C)O2)Oc2ccc(cc2Cl)[C@H]1O [Vancomycin],MIC,HA-MRSA [1]; [5],1/1
same,MIC,MSSA; MSSA 79333,1 and 0.5
same,MIC,CA-MRSA [2]; [6],1/1
same,Avg ΣFIC (range),"HA-MRSA [3]; antibiotic combined with PEP35 (added together), HA-MRSA 70798 (USA100/800)",1.19 (1.03-1.5)
same,Avg ΣFIC (range),HA-MRSA [3]; [7],0.95 (0.56-1.25)
same,Avg ΣFIC (range),VRSA; [8],0.3 (0.15-0.53) and 0.49 (0.24-1.06)
same,Avg ΣFIC (range),"VRSA; antibiotic combined with PEP35 (added together), VRSA 106",0.27 (0.09-0.53) and 0.40 (0.15-1.06)
same,Avg ΣFIC (range),"CA-MRSA [4]; antibiotic combined with PEP35 (added together), CA-MRSA 69615 (USA400)",1.19 (1.03-1.5)
same,Avg ΣFIC (range),CA-MRSA [4]; [9],1.05 (0.75-1.25)
Cc1nnc(SCC2=C(C(=O)O)N3C(=O)[C@@H](NC(=O)Cn4cnnn4)[C@H]3SC2)s1 [Cefazolin],"MICs alone, range",HA-MRSA [1]; 50 HA-MRSA strains,2 to 512 µg/mL
same,strains resistant to the antibiotic,HA-MRSA [1]; 50 HA-MRSA strains,47 of the 50 strains
same,MIC,"HA-MRSA [1]; HA-MRSA 70798 (USA100/800), agent alone, in µg/mL",512
same,MIC,HA-MRSA [1]; [5],128 and 256/256
same,MIC,"HA-MRSA [1]; HA-MRSA 77090 (USA100/800), agent alone, in µg/mL",128 and 64
same,MIC,"HA-MRSA [1]; HA-MRSA 77090 (USA100/800)^a row, antibiotic alone, in µg/mL",128
same,MIC,"HA-MRSA [1]; HA-MRSA 77090 (USA100/800)^b row, antibiotic alone, in µg/mL",128
same,MIC,"HA-MRSA [1]; HA-MRSA 77098 (USA100/800), agent alone",512/512
same,MIC,"HA-MRSA [1]; Staphylococcus aureus, MRSA / USA200, HA-MRSA (CMRSA4/USA200), antibiotic alone, read-out: Cefazolin (MIC)",256 µg/mL
same,MIC,"HA-MRSA [1]; Staphylococcus aureus, MRSA / USA500, HA-MRSA (CMRSA5/USA500), antibiotic alone, read-out: Cefazolin (MIC)",2 µg/mL
same,MIC,"HA-MRSA [1]; Staphylococcus aureus, MRSA / USA600, HA-MRSA (CMRSA1/USA600), antibiotic alone, read-out: Cefazolin (MIC)",128 µg/mL
same,MIC,"HA-MRSA [1]; Staphylococcus aureus, MRSA, HA-MRSA (CMRSA3/6), antibiotic alone, read-out: Cefazolin (MIC)",256 µg/mL
same,MIC,"HA-MRSA [1]; Staphylococcus aureus, MRSA, HA-MRSA (CMRSA6), antibiotic alone, read-out: Cefazolin (MIC)",256 µg/mL
same,MIC,"HA-MRSA [1]; Staphylococcus aureus, MRSA, HA-MRSA (CMRSA8), antibiotic alone, read-out: Cefazolin (MIC)",64 µg/mL
same,MIC,MSSA; MSSA 79333,1 and 0.5/0.5
same,MIC,"MSSA; MSSA 79333, listed as CEFAZOLIN",0.5/0.5
same,MIC,MSSA; S. aureus control,0.5/0.5 ug/ml
same,MIC,"MSSA; Staphylococcus aureus, MSSA, S. aureus control, read-out: MIC",0.5 µg/mL
same,"MICs alone, range",CA-MRSA [2]; 50 CA-MRSA strains,2 to 256 µg/mL
same,strains resistant to the antibiotic,CA-MRSA [2]; 50 CA-MRSA strains,45 of the 50 strains
same,MIC,CA-MRSA [2]; [6],64 and 64/64
same,MIC,"CA-MRSA [2]; CA-MRSA 69615 (USA400)^a row, antibiotic alone, in µg/mL",64
same,MIC,"CA-MRSA [2]; CA-MRSA 69615 (USA400)^b row, antibiotic alone, in µg/mL",64
same,MIC,"CA-MRSA [2]; CA-MRSA 70857 (USA400), agent alone",32 and 32/32
same,MIC,"CA-MRSA [2]; Staphylococcus aureus, MRSA / USA400",256 µg/mL
same,Avg ΣFIC (range),HA-MRSA [3]; [7],0.30 (0.12-0.56) and 0.24 (0.075-0.53)
same,Avg ΣFIC (range),"HA-MRSA [3]; β-lactam combined with HybPEP35-1, HA-MRSA 70798 (USA100/800)",0.35
same,Avg ΣFIC (range),"HA-MRSA [3]; β-lactam combined with PEP-52, HA-MRSA 70798 (USA100/800)",>1*
same,Avg ΣFIC (range),"HA-MRSA [3]; β-lactam combined with Scrambled PEP35, HA-MRSA 70798 (USA100/800)",0.35
same,Avg ΣFIC (range),VRSA; [8],0.63 (0.5-1.015)
same,Avg ΣFIC (range),"VRSA; β-lactam combined with HybPEP35-1, VRSA 106",0.52
same,Avg ΣFIC (range),"VRSA; β-lactam combined with PEP-52, VRSA 106",>1*
same,Avg ΣFIC (range),"VRSA; β-lactam combined with Scrambled PEP35, VRSA 106",0.52
same,Avg ΣFIC (range),CA-MRSA [4]; [9],0.3 (0.12-0.56) and 0.26 (0.09-0.53)
same,Avg ΣFIC (range),"CA-MRSA [4]; β-lactam combined with HybPEP35-1, CA-MRSA 69615 (USA400)",0.24
same,Avg ΣFIC (range),"CA-MRSA [4]; β-lactam combined with PEP-52, CA-MRSA 69615 (USA400)",>0.5*
same,Avg ΣFIC (range),"CA-MRSA [4]; β-lactam combined with Scrambled PEP35, CA-MRSA 69615 (USA400)",0.24
